For the assay, the system named is CD8+ T cells of healthy HLA-A*24 donors. The experiment in a line: In vitro immunogenicity for MHC class I presented peptides (aAPC priming, A*2402 multimer staining). Type of assay: cell-based, human. Conditions: in vitro priming of CD8+ T cells with peptide-loaded HLA-A*2402/anti-CD28 beads, three stimulation cycles. On the procedure: CD8 T cells were either directly enriched from the leukapheresis product or PBMCs (peripheral blood mononuclear cells) were isolated first by using standard gradient separation medium (PAA, Cölbe, Germany). Isolated CD8 lymphocytes or PBMCs were incubated until use in T-cell medium (TCM) consisting of RPMI-Glutamax (Invitrogen, Karlsruhe, Germany) supplemented with 10% heat inactivated human AB serum (PAN-Biotech, Aidenbach, Germany), 100 U/ml Penicillin/100 μg/ml Streptomycin (Cambrex, Cologne, Germany), 1 mM sodium pyruvate (CC Pro, Oberdorla, Germany), 20 μg/ml Gentamycin (Cambrex). […] Isolation of CD8+ lymphocytes was performed by positive selection using CD8 MicroBeads (Miltenyi Biotec, Bergisch-Gladbach, Germany).
800.000 beads/200 μl were coated in 96-well plates in the presence of 600 ng biotin anti-CD28 plus 200 ng relevant biotin-pMHC (high density beads). Stimulations were initiated in 96-well plates by co-incubating 1×10^6 CD8+ T cells with 2×10^5 washed coated beads in 200 μl TCM supplemented with 5 ng/ml IL-12 (PromoCell) for 3-4 days at 37° C. […] Peptide specific cells were calculated as percentage of total CD8+ cells. […] In vitro priming of specific multimer+ CD8+ lymphocytes was detected by appropriate gating and by comparing to negative control stimulations.

This is an account of results in US20110229505A1, “Methods for the diagnosis and treatment of cancer based on AVL9” (IMMATICS BIOTECHNOLOGIES GMBH, priority 2010, published 2011).

As for “1 (FYISPVNKL; listed as Homo sapiens) [compound 1]”, the “Positive donors/donors tested [%]” value (among evaluable donors) turned out to be 100%. The “Positive wells/wells tested [%]” value (among evaluable wells) turned out to be 50%.
